Test [1] can be described thus: Hepatoprotective activity in human HL-7702 cells assessed as inhibition of D-galactosamine-induced toxicity at 1x10'-5 M by MTT assay relative to control. Format: functional. The note with it: L02.
Another test relates to L02. Briefly: Hepatoprotective activity against D-galactosamine-induced toxicity in human HL-7702 cells assessed as survival rate at 1x10'-5 M by MTT assay relative to normal cell. Format: functional. The note with it: read-out: Survival.

Drawing on ChEMBL document CHEMBL3091380, “Dibenzoyl and isoflavonoid glycosides from Sophora flavescens: inhibition of the cytotoxic effect of D-galactosamine on human hepatocyte HL-7702” (2013), this text covers inhibition and viability for six compounds.

By inhibition is commonly meant how much of the control response was suppressed.

On to `COc1ccc(C(=O)C(=O)c2ccc(O[C@@H]3O[C@H](CO[C@@H]4OC[C@@H](O)[C@H](O)[C@H]4O)[C@@H](O)[C@H](O)[C@H]3O)cc2O)cc1O`, for which the inhibition at 10 µM in test [1] was determined as 27.1%. The viability at 10 µM in the test on L02 turned out to be 61.3%.

`COc1ccc(C(=O)C(=O)c2ccc(O[C@@H]3O[C@H](CO[C@@H]4OC[C@](O)(CO)[C@H]4O)[C@@H](O)[C@H](O)[C@H]3O)cc2O)cc1O`: the inhibition at 10 µM in test [1] was 52.4%. Also, in the test with L02, the viability at 10 µM came out at 74.7%.

For `COc1ccc(-c2coc3cc(O[C@@H]4O[C@H](CO[C@@H]5OC[C@](O)(CO)[C@H]5O)[C@@H](O)[C@H](O)[C@H]4O)ccc3c2=O)cc1O`, the inhibition at 10 µM in test [1] turned out to be 36.6%. For the same compound, the viability at 10 µM in the test with L02 was found to be 66.3%.

`COc1cc(-c2coc3cc(O[C@@H]4O[C@H](CO[C@@H]5OC[C@@H](O)[C@H](O)[C@H]5O)[C@@H](O)[C@H](O)[C@H]4O)ccc3c2=O)ccc1O`: in test [1], the inhibition at 10 µM stood at 45.8%. The viability at 10 µM in the test with L02 was found to be 71.2%.

For `COc1ccc(-c2coc3cc(O[C@@H]4O[C@H](CO[C@@H]5OC[C@@H](O)[C@H](O)[C@H]5O)[C@@H](O)[C@H](O)[C@H]4O)ccc3c2=O)cc1O`, the inhibition at 10 µM in test [1] was determined as 46.3%. Further, the viability at 10 µM with L02 came out at 71.5%.

For the compound `COC(=O)c1cc(OC)c2c(c1-c1c(CO)cc(OC)c3c1OCO3)OCO2` [BICYCLOL], the inhibition at 10 µM in test [1] stood at 29.4%. The viability at 10 µM in the test with L02 is 62.5%.
